Data reported in the supplement of paper PMC10307832.

Legend:
Experiment in all cases: relative viability (nuclei count vs DMSO), 5 days (fraction); higher = more cells survive
[1] = compound: COC1=C(C=C(C=C1)C2=CC3=NC=CN3C(=N2)NC4=C(C=CC=N4)C(=O)N)OC [BAY61-3606] + CC(C)C[C@H](NC(=O)[C@H](Cc1ccccc1)NC(=O)c1cnccn1)B(O)O [Bortezomib] (partner 0.002 µM)
In short: (§1)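 Dosing by pin tool came one day after lung cancer cell lines were seeded in 1536-well plates, using either one drug or a fixed anchor-drug dose plus five library-drug doses (not always all listed) in √10 steps. After 5 days, nuclei were counted on 4× images. Relative viability is treated-well nuclei count divided by vehicle-well nuclei count, and values are medians of duplicate plates.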

[2] = compound: COC1=C(C=C(C=C1)C2=CC3=NC=CN3C(=N2)NC4=C(C=CC=N4)C(=O)N)OC [BAY61-3606] + O=C(c1cc(Cc2n[nH]c(=O)c3ccccc23)ccc1F)N1CCN(C(=O)C2CC2)CC1 [Olaparib] (partner 8 µM)
In short: as §1

[3] = compound: COC1=C(C=C(C=C1)C2=CC3=NC=CN3C(=N2)NC4=C(C=CC=N4)C(=O)N)OC [BAY61-3606] + CS(=O)(=O)CCNCc1ccc(-c2ccc3ncnc(Nc4ccc(OCc5cccc(F)c5)c(Cl)c4)c3c2)o1 [Lapatinib] (partner 2 µM)
In short: as §1

[4] = compound: COC1=C(C=C(C=C1)C2=CC3=NC=CN3C(=N2)NC4=C(C=CC=N4)C(=O)N)OC [BAY61-3606] + Cc1cc(Nc2cc(N3CCN(C)CC3)nc(Sc3ccc(NC(=O)C4CC4)cc3)n2)n[nH]1 [Tozasertib] (partner 0.1 µM)
In short: as §1

Cell Line	relative viability ([1]; first compound 0.02 µM)	relative viability ([1]; first compound 0.06325 µM)	relative viability ([1]; first compound 0.2 µM)	relative viability ([1]; first compound 0.6325 µM)	relative viability ([1]; first compound 2 µM)	relative viability ([2]; first compound 0.02 µM)	relative viability ([2]; first compound 0.06325 µM)	relative viability ([2]; first compound 0.2 µM)	relative viability ([2]; first compound 0.6325 µM)	relative viability ([2]; first compound 2 µM)	relative viability ([3]; first compound 0.02 µM)	relative viability ([3]; first compound 0.06325 µM)	relative viability ([3]; first compound 0.2 µM)	relative viability ([3]; first compound 0.6325 µM)	relative viability ([3]; first compound 2 µM)	relative viability ([4]; first compound 0.02 µM)	relative viability ([4]; first compound 0.06325 µM)	relative viability ([4]; first compound 0.2 µM)	relative viability ([4]; first compound 0.6325 µM)	relative viability ([4]; first compound 2 µM)
NCI-H1355	1.19	1.07	1.17	1.27	1.21	0.778	0.713	0.708	0.762	0.641	1.07	0.907	0.926	0.948	0.764	0.568	0.344	0.49	0.344	0.214
NCI-H3122	0.947	1.02	1.05	0.988	1	0.607	0.652	0.676	0.636	0.57	1.03	0.934	0.974	1.07	0.957	0.456	0.262	0.377	0.438	0.305
NCI-H2009	1.07	1.02	0.961	1.02	0.83	0.714	0.639	0.864	0.713	0.592	1	0.971	0.937	0.962	0.861	0.847	0.648	0.67	0.651	0.511
NCI-H520	1.1	0.602	0.843	0.84	0.433	0.359	0.325	0.383	0.391	0.274	0.9	1.05	0.901	0.959	0.729	0.48	0.432	0.461	0.452	0.356
SW 1573	1.16	1.18	0.971	1.02	0.66	0.553	0.455	0.424	0.542	0.259	1.18	1.01	1.08	1.11	0.858	0.168	0.174	0.154	0.197	0.146
HARA	1.08	1.14	1.19	1.09	1.1	1.02	0.929	1.06	0.845	0.619	0.798	0.643	0.721	0.862	0.735	0.144	0.13	0.11	0.123	0.0865
NCI-H2126	1.11	1.13	1.08	1.08	1.07	0.92	0.985	0.865	0.909	0.833	0.83	0.724	0.745	0.794	0.745	0.895	0.485	0.801	0.945	0.331
NCI-H1915	0.929	1	0.9	0.925	0.913	0.253	0.236	0.254	0.247	0.181	1.02	1.02	0.925	0.878	0.919	0.416	0.329	0.365	0.277	0.152
